Kd and Papp data for three molecules are collected here from ChEMBL document CHEMBL5034032, “Discovery and Structure-Based Optimization of Fragments Binding the Mixed Lineage Kinase Domain-like Protein Executioner Domain” (J Med Chem, 2021).

Data set [1] deals with T1, Mixed lineage kinase domain-like protein (Homo sapiens, UniProt Q8NB16).
T1 sequence (Q8NB16 whole entry): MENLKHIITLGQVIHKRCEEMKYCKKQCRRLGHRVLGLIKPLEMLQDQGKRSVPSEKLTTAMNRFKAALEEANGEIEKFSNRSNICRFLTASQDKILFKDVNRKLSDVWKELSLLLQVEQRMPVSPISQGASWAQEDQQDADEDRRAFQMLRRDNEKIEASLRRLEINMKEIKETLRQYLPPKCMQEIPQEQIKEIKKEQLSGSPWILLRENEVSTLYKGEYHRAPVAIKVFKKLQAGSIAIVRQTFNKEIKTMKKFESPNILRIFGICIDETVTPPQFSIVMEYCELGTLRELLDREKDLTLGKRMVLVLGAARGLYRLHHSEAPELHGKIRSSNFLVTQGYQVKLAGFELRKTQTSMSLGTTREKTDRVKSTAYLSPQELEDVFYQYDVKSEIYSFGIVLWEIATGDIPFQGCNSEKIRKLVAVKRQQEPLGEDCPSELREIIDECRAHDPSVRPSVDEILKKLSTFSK
The data set is described as follows: Binding affinity to MLKL N-terminal executioner domain (2 to 154 residues)(unknown origin) assessed as dissociation constant by TROSY-HSQC NMR titration analysis.

Data set [2] is described as follows: Permeability of compound by PAMPA assay. The format is ADME. Conditions: read-out: permeability.

SMILES strings stand for the structures. pKd: −log10 of the molar value.

Regarding `CCCCCCCCCO[C@@H]1O[C@H](CO)[C@@H](O[C@H]2O[C@H](CO)[C@@H](O)[C@H](O)[C@H]2O)[C@H](O)[C@H]1O`, in data set [1], the pKd was 2.26.
On to `CO[C@@H](c1ccc(C(C)C)cc1)c1nc2ccc(C(=O)O)cc2[nH]1`, for which the Papp in data set [2] amounted to 0.031 ×10⁻⁶ cm/s.
On to `COCCOCn1c(S(C)(=O)=O)nc2c1c(=O)n(C)c(=O)n2C`, for which, in data set [1], the pKd was 4.14.
